Laboratory results published in paper PMC4068143 (ACS chemical biology, 2014).
Like-named read-outs stand apart in the source and are kept apart here.

Key:
[1] = tested on: P. falciparum C6^7G8 (CQR); assay: In vitro antiplasmodial growth assay, pfcrt transfectant line C6^7G8; format: cell-based, Plasmodium falciparum
[2] = tested on: P. falciparum C4^Dd2 (CQR); assay: In vitro antiplasmodial growth assay, pfcrt transfectant line C4^Dd2; format: cell-based, Plasmodium falciparum
[3] = tested on: P. falciparum C2^GC03 (CQS); assay: In vitro antiplasmodial growth assay, pfcrt transfectant line C2^GC03; format: cell-based, Plasmodium falciparum; settings: read-out: IC50, parasite strain C2^GC03
[4] = tested on: C6^7G8 (CQR) pfcrt transfectant line; assay: DV H+ leak assay
[5] = tested on: C4^Dd2 (CQR) pfcrt transfectant line; assay: DV H+ leak assay
Dd2 PfCRT^CQR = target: T1, Dd2 PfCRT^CQR (Plasmodium falciparum, UniProt Q9N623, A220S/I356T/K76T/M74I/N326S/N75E/Q271E/R371I); settings: oocyte system; cited from earlier work
T1 sequence (Q9N623 1-424 M74I/N75E/K76T/A220S/Q271E/N326S/I356T/R371I): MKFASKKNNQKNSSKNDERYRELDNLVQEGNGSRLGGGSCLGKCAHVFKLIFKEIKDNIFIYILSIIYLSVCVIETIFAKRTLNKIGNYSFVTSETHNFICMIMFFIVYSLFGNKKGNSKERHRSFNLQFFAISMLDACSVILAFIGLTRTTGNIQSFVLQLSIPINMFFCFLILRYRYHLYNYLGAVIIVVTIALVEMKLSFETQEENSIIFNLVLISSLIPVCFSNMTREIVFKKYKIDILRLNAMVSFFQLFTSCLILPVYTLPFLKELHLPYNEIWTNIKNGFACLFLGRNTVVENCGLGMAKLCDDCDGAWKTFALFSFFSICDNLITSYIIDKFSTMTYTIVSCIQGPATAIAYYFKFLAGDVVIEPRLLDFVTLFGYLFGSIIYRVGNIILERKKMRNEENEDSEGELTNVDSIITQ

P. falciparum HB3 (CQS) = assay: [3H]-hypoxanthine incorporation parasite growth assay, strain HB3; format: cell-based; settings: Plasmodium falciparum, HB3, read-out: IC50, parasite strain HB3
P. falciparum Dd2 (CQR) = assay: microbe, parasite or virus in culture; format: cell-based; settings: Plasmodium falciparum, DD2, read-out: IC50, parasite strain Dd2
[6] = tested on: CQS N-strain of P. berghei; assay: Peters 4-day parasite suppression test in P. berghei-infected mice; format: in vivo, CD-1 mice; settings: Plasmodium berghei, in Mus musculus, po, 96 h
P. falciparum P31 (CQR) = assay: microbe, parasite or virus in culture; format: cell-based; settings: Plasmodium falciparum, read-out: IC50, parasite strain P31
[7] = tested on: C2^GC03 (CQS) pfcrt transfectant line; assay: DV H+ leak assay; settings: compound 1 µM
β-hematin formation = assay: Inhibition of β-hematin formation; settings: read-out: IC50 (heme): concentration that inhibited 50% of β-hematin production in vitro; 60 °C, 1 h
P. falciparum FCB (CQR) = assay: microbe, parasite or virus in culture; format: cell-based; settings: Plasmodium falciparum, read-out: IC50, parasite strain FCB
[8] = Plasmodium falciparum, 7G8, read-out: IC50, parasite strain C6^7G8
[9] = Plasmodium falciparum, DD2, read-out: IC50, parasite strain C4^Dd2

## CCN(CC)CCCC(C)Nc1ccnc2cc(Cl)ccc12 (centres unmarked) [CQ, Chloroquine]
[1]; [8]
  IC50: 26.9 ± 3.7 nM
[2]; [9]
  IC50: 31 ± 1.9 nM
[3]; Plasmodium falciparum
  IC50: 12.4 ± 1.7 nM
[4]; CQ 2.5 µM
  rate of concanamycin A-induced DV alkalinization: increased the rate of DV alkalinization
[5]; CQ 2.5 µM
  rate of concanamycin A-induced DV alkalinization: increased the rate of DV alkalinization

## CCNCCCC(C)Nc1ccnc2cc(Cl)ccc12 (centres unmarked) [monodesethyl-CQ]
[1]; read-out: IC50, parasite strain C6^7G8, mean ± SEM, three experiments
  IC50: 855 ± 186 nM
[2]; read-out: IC50, parasite strain C4^Dd2, mean ± SEM, three experiments
  IC50: > 1500 nM
[3]; mean ± SEM, three experiments
  IC50: 31.4 ± 1.5 nM

## Clc1ccc2c(N3CCN(CCCN4CCN(c5ccnc6cc(Cl)ccc56)CC4)CC3)ccnc2c1 [piperaquine]
Dd2 PfCRT^CQR
  ability to inhibit the transport of [3H]CQ via PfCRT^CQR: lacked the ability to inhibit

## C=C[C@H]1C[N@@]2CC[C@H]1C[C@H]2[C@H](O)c1ccnc2ccc(OC)cc12 [quinine]
[1]; C6^7G8 vs C2^GC03
  times more susceptible than the C2^GC03 line: 2–4 times
[1]; [8]
  IC50: 15.9 ± 0.7 nM
P. falciparum HB3 (CQS)
  IC50: 108 ± 11.7 nM
P. falciparum Dd2 (CQR)
  IC50: 188 ± 28.9 nM
[2]; C4^Dd2 vs C2^GC03
  times more susceptible than the C2^GC03 line: 2–4 times
[2]; [9]
  IC50: 18.4 ± 0.9 nM
[6]
  ED50: 48.7 mg/kg
[3]; Plasmodium falciparum
  IC50: 56 ± 3 nM
P. falciparum P31 (CQR)
  IC50: 535 ± 40.8 nM
[7]
  rate of concanamycin A-induced DV alkalinization: without effect
β-hematin formation
  IC50: 3900 ± 100 nM
[4]; compound 1 µM
  rate of concanamycin A-induced DV alkalinization: increased the rate of DV alkalinization
P. falciparum FCB (CQR)
  IC50: 355 ± 17.8 nM
[5]; compound 1 µM
  rate of concanamycin A-induced DV alkalinization: increased the rate of DV alkalinization
